Data: US9024017B2, “Octahydro-cyclopentapyrrolyl antagonists of CCR2” (Janssen Pharmaceutica NV, priority 2012, dated 2015)

Biological target: T1, CCR2 (Homo sapiens, UniProt P41597)
T1 construct: host or cells: THP-1 (human monocytic cell line)
Assay: MCP-1 Receptor Binding Assay in THP-1 Cells
Conditions: read-out: MCP1B_v3 IC50
Procedure: Compounds of the invention were subjected to various representative biological tests. […] MCP-1 Receptor Binding Assay in THP-1 Cells Human monocytic cell line THP-1 cells were obtained from American Type Culture Collection (Manassas, Va., USA). The THP-1 cells were grown in RPMI-1640 (RPMI: Roswell Park Memorial Institute Medium-cell culture growth media) supplemented with 10% fetal bovine serum in a humidified 5% CO2 atmosphere at 37° C. The cell density was maintained between […].
THP-1 (cells were incubated with 0.5 nM ^125I labeled MCP-1 (Perkin-Elmer Life Sciences, Inc. Boston, Mass.) in the presence of varying concentrations of either unlabeled MCP-1 (R & D Systems, Minneapolis, Minn.) or test compound for 2 hours at 30° C. in a 96 well plate. Cells were then harvested onto a filter plate, dried, and 20 μL of Microscint 20 was added to each well. Plates were counted in a TopCount NXT, Microplate Scintillation & Luminescence Counter (Perkin-Elmer Life Sciences, Inc. Boston, Mass.). Blank values (buffer only) were subtracted from all values and drug treated values were compared to vehicle treated values. 1 μM cold MCP-1 was used for nonspecific binding.

T1 sequence (P41597 whole entry): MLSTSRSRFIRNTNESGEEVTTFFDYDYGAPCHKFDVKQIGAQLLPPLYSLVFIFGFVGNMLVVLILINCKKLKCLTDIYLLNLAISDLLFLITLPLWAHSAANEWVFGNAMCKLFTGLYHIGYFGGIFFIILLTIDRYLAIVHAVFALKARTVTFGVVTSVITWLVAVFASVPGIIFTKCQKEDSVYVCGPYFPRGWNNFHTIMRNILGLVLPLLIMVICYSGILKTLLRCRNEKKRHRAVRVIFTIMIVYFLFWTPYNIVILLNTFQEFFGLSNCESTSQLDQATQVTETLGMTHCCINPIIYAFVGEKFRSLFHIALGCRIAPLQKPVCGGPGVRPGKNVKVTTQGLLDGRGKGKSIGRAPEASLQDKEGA

Row | IC50 | SMILES
1 | 170 nM | COC1COCCC1N[C@@H]1C[C@H]2CN(C(=O)CNC(C)=O)C[C@@]2(C(=O)N2CCc3ncc(C(F)(F)F)cc3C2)C1 (relative stereo) [Example 75, N-(2-((3aR,5R,6aR)-5-(((3S*,4S*)-3-Methoxytetrahydro-2H-pyran-4-yl)amino)-3a-(3-(trifluoromethyl)-5,6,7,8-tetrahydro-1,6-naphthyridine-6-carbonyl)hexahydrocyclopenta-[c]pyrrol-2(1H)-yl)-2-oxoethyl)acetamide]
2 | 30 nM | COC1COCCC1N[C@@H]1C[C@H]2CN(C(=O)OCCN3CCCC3)C[C@@]2(C(=O)N2CCc3ccc(C(F)(F)F)cc3C2)C1 (relative stereo) [Example 46, (3aR,5R,6aR)-2-(Pyrrolidin-1-yl)ethyl 5-(((3S*,4S*)-3-methoxytetrahydro-2H-pyran-4-yl)amino)-3a-(7-(trifluoromethyl)-1,2,3,4-tetrahydroisoquinoline-2-carbonyl)hexahydrocyclopenta[c]pyrrole-2(1H)-carboxylate]
3 | 80 nM | CNC(=O)N1C[C@@H]2C[C@@H](NC3CCOCC3OC)C[C@]2(C(=O)N2CCc3ncc(C(F)(F)F)cc3C2)C1 (relative stereo) [Example 13, (3aR,5R,6aR)-5-(((3S*,4S*)-(3-Methoxytetrahydro-2H-pyran-4-yl)amino)-N-methyl-3a-(3-(trifluoromethyl)-5,6,7,8-tetrahydro-1,6-naphthyridine-6-carbonyl)hexahydrocyclopenta-[c]pyrrole-2(1H)-carboxamide]
4 | 360 nM | C#CC(=O)N1C[C@@H]2C[C@@H](NC3CCOCC3OC)C[C@]2(C(=O)N2CCc3ncc(C(F)(F)F)cc3C2)C1 (relative stereo) [Example 73, 1-((3aR,5R,6aR)-5-(((3S*,4S*)-3-Methoxytetrahydro-2H-pyran-4-yl)amino)-3a-(3-(trifluoromethyl)-5,6,7,8-tetrahydro-1,6-naphthyridine-6-carbonyl)hexahydrocyclopenta-[c]pyrrol-2(1H)-yl)prop-2-yn-1-one]
5 | 30 nM | COC1COCCC1N[C@@H]1C[C@H]2CN(C3CC3)C[C@@]2(C(=O)N2CCc3ccc(C(F)(F)F)cc3C2)C1 (relative stereo) [Example 95, ((3aR,5R,6aR)-2-Cyclopropyl-5-(((3S*,4S*)-3-methoxytetrahydro-2H-pyran-4-yl)amino)octahydrocyclopenta[c]pyrrol-3a-yl)(7-(trifluoromethyl)-3,4-dihydroisoquinolin-2(1H)-yl)methanone]
6 | 30 nM | COC1COCCC1N[C@@H]1C[C@H]2CN(C3COC3)C[C@@]2(C(=O)N2CCc3ccc(C(F)(F)F)cc3C2)C1 (relative stereo) [Example 100, ((3aR,5R,6aR)-5-(((3S*,4S*)-3-Methoxytetrahydro-2H-pyran-4-yl)amino)-2-(oxetan-3-yl)octahydrocyclopenta[c]pyrrol-3a-yl)(7-(trifluoromethyl)-3,4-dihydroisoquinolin-2(1H)-yl)methanone]
7 | 1980 nM | COC1COCCC1N[C@@H]1C[C@H]2CN(C3CCOCC3OC)C[C@@]2(C(=O)N2CCc3ncc(C(F)(F)F)cc3C2)C1 (relative stereo) [Example 104, ((3aR,5R,6aR)-2-((3S*,4S*)-3-Methoxytetrahydro-2H-pyran-4-yl)-5-(((3S*,4S*)-3-methoxytetrahydro-2H-pyran-4-yl)amino)octahydrocyclopenta[c]pyrrol-3a-yl)(3-(trifluoromethyl)-7,8-dihydro-1,6-naphthyridin-6(5H)-yl)methanone]
8 | 980 nM | COC1COCCC1N[C@@H]1C[C@H]2CN(S(=O)(=O)CCc3ccccc3)C[C@@]2(C(=O)N2CCc3ncc(C(F)(F)F)cc3C2)C1 (relative stereo) [Example 93, ((3aR,5R,6aR)-5-(((3S*,4S*)-3-Methoxytetrahydro-2H-pyran-4-yl)amino)-2-(phenethylsulfonyl)octahydrocyclopenta[c]pyrrol-3a-yl)(3-(trifluoromethyl)-7,8-dihydro-1,6-naphthyridin-6(5H)-yl)methanone]
